Consider one compound from patent US20240041959A1, “NOVEL MODIFIED REOVIRUS AND USE THEREOF” (priority 2020, published 2024).

The subject of one data set is normal cell line HS27. Briefly: WST cell viability in normal cell line (Example 3). The class given is cell-based, human. As to conditions: HS27, 3 days, FIG. 1A. On the procedure: The cell lines used in this example are as follows: normal cell line HS27, and paclitaxel-resistant cancer cell lines Skmel28, A375, and B16F10. Each cell line was cultured in DMEM medium containing 10% fetal bovine serum and seeded at a density of 3,000 cells/well in a 96-well plate, followed by incubation at 37° C. and 5% CO2 for 24 hours. RP116 was serially diluted at concentrations ranging from 0.008 to 1,000 MOI (Multiplicity of Infection) and treated to the prepared cells, and further incubated for three days at 37° C. and 5% CO2. The number of surviving cells was measured using a WST kit (DoGen, Seoul, South Korea, Cat No: EZ-3000) according to the manufacturer's instructions.

Data set [1] has as its system paclitaxel-resistant cancer cell lines Skmel28, A375, and B16F10. Put plainly: WST cell viability in paclitaxel-resistant cancer cell lines (Example 3). The class given is cell-based. As to conditions: even at high concentrations of 100 nM or more, FIG. 1B. As for the experimental part: The cell lines used in this example are as follows: normal cell line HS27, and paclitaxel-resistant cancer cell lines Skmel28, A375, and B16F10. Each cell line was cultured in DMEM medium containing 10% fetal bovine serum and seeded at a density of 3,000 cells/well in a 96-well plate, followed by incubation at 37° C. and 5% CO2 for 24 hours. […] The number of surviving cells was measured using a WST kit (DoGen, Seoul, South Korea, Cat No: EZ-3000) according to the manufacturer's instructions.

For the compound `CC(=O)O[C@H]1C(=O)[C@@]2(C)[C@H]([C@H](OC(=O)c3ccccc3)[C@]3(O)C[C@H](OC(=O)[C@H](O)[C@@H](NC(=O)c4ccccc4)c4ccccc4)C(C)=C1C3(C)C)[C@]1(OC(C)=O)CO[C@@H]1C[C@@H]2O` [paclitaxel], the “cell viability of normal cell line vs control group” value in the data set with normal cell line HS27 is reported as “cell viability decreased in a concentration-dependent manner”. In data set [1], the “cell viability of paclitaxel-resistant cancer cells vs control group” value is on record as “no significant difference in cell viability compared to the control group”.
